US4904697A, “Controlling the growth of certain tumor tissue with chalcone derivatives” (Merrell Dow Pharmaceuticals Inc., priority 1987, dated 1990)
Converted amounts (≈) assume the structure as drawn. Read-outs that look alike come from different tables or passages of the source.

Key:
[1] = test system: Human Choriotrophoblast Tumor (JAr); experiment: Growth of human choriotrophoblast tumor (JAr) in athymic mice; type: in vivo
Excerpt: (§1) The effect of a chalcone derivative of structure 1 to control the growth of tumor tissue can be assessed in standard animal tumor models, for example, in the following animal tumor modes: (a) L1210 leukemia in mice, (b) EMT6 tumor in Balb/C mice, (c) 7,12-dimethylbenzanthracene-induced (DMBA-induced) mammary tumor in rats, and (d) Morris 7288C or 5123 hepatoma in Buffalo rats.
(D) Effect of α-methyl-4-Dimethylamino-2',5'-
dimethoxychalcone On the Growth of Human
Choriotrophoblast Tumor (JAr) In Athymic Mice
JAr cells (1.5 × 10^6 cells/animal) were injected (s.c.) on day
zero. The compound, 4dimethylamino-2',5dimethoxychalcone, was suspended i
5 per cent polyvinylpyrrolidone (PVP) and administered (i.p.) once daily
as indicated. At the end of 12 days the animals were sacrificed, tumors

[2] = test system: P388 Leukemia; experiment: Survival of P388 leukemia bearing mice; type: in vivo
Excerpt: as §1
(A) Effect of α-methyl-4-Dimethylamino-2',5'-dimethoxychalcone
on the Survival of P388 Leukemia Bearing Mice
1 × 10^5 P388 leukemia cells/animal were inoculated (i.p.) on
day zero. Compound was suspended in 5% polyvinylpyrrolidone (PVP) and was
administered (i.p.) once daily from day 1-9. The survival of the animals
was noted and the average survival was determined.

[3] = test system: B16 Melanoma; experiment: Growth of B16 melanoma in mice (tumor weight); type: in vivo; settings: for TUMOR GROWTH (Mean ± S.E., n = 10): tumors weighed day 18
Excerpt: as §1
(§2) (B) Effect of α-methyl-4-Dimethylamino-2',5'-dimethoxychalcone On
(§3) the Growth and Survival of B16 Melanoma Bearing Mice
(§4) 1 × 10^5 B16 melanoma cells/animal were injected (s.c.) or
(§5) (i.p.)? on day 0. Compounds suspended in 5 percent polyvinylpyrrolidone
(§6) (PVP) were administered once daily (i.p. ) from day 1-15. For tumor growt
studies the animals were sacrificed on day 18, the tumors were excised,
and weighed. For survival studies the survival days of each animal was […]

[4] = test system: B16 Melanoma; experiment: Survival of B16 melanoma bearing mice; type: in vivo
Excerpt: as §1, §2, §3, §4, §5, §6
and weighed. For survival studies the survival days of each animal was
noted and average survival was determined.

[5] = test system: HeLa cells; experiment: Mitotic accumulation (mitotic arrest) of HeLa cells; type: cell-based; settings: Homo sapiens, read-out: MITOTIC ARREST Minimum Effectice Concentration
Method: Exponentially growing human carcinoma (HeLa) cells are plated at a densit
of 1 × 10^4 cells/well in a 24 well plate. The compounds were
dissolved in dimethylsulfoxide and diluted with complete medium. The cell
were innoculated with the medium containing the test compound either for
hours or 1 hour. For the 1 hour test, the cells were washed twice and
further grown for 18 hours in the presence of drug free medium. The
mitotic cells in the supernatent were collected and were pooled with the
trypsinized cells and cytopreps were made on slides using a
cytocentrifuge. The slides were fixed with Carnoy's solution, stained wit
acetoorcein, and the mitotic index was determined.

[6] = test system: L1210 Leukemia; experiment: Survival of L1210 leukemia in mice; type: in vivo
Excerpt: as §1
(C) Effect of α-methyl-4-Dimethylamino-2',5'-dimethoxychalcone
and Other Mitotic Inhibitors on the Survival of L1210 Leukemia in
1 × 10^5 leukemic cells/animal were inoculated (i.p.) on day
zero. The compounds were suspended or dissolved in 5% polyvinylpyrrolidon
(PVP) and administered once daily from day 1-9 (i.p.). The survival of th
animals was noted and average survival was determined.

[7] = Experimental Allergic Encephalomyelitis (EAE) in rats; type: in vivo, rats (Lewis strain); settings: 25.0 mg/kg s.c. once every other day, day 1 through 10
Excerpt: The compounds of structure 1 inhibit the destruction of myelin sheath surrounding the axons of the central nervous system. This myelin destruction is characteristic in those individuals suffering from multiple sclerosis. By preventing the destruction of myelin in multiple sclerosis patients, the compounds of structure 1 will prevent or reduce the progressive nature of the disease, prevent or increase the length of time between the recurrent episodes of the disease, and prevent or suppress the formation of the scarlike, multiple sclerotic plaques characteristic of the disease. […] This myelin brings about an immune response in the individual in which the myelin sheath is destroyed. EAE is an experimental model of multiple sclerosis.
Effect of α-methyl-4-dimethylamino-2',5'-dimethoxychalcone on
Experimental Allergic Encephalomyelitis (EAE) In Rats
EAE was induced in rats as described by Rosenthal and Nagra, Proc. Soc.
Exp. Biol. Med. 125, 149 (1967). Lewis strain rats ranging in weight from
100-200 g were sensitized with encephalitogenic emulsion consisting of
homogenized spinal cord in complete Freund's adjuvant. The test compound
and hydrocortisone (HC) were administered in polyvinylpyrrolidone vehicle
The test compound was administered i.p. once daily from day 1 through day
10. […]
10. The incidence of paralysis was recorded and mean paralysis time was […]

[8] = test system: HeLa cells; experiment: Growth inhibition of HeLa cells; type: cell-based; settings: Homo sapiens, 72 h, read-out: GROWTH INHIBITION IC50
Method: For growth inhibition studies, exponentially growing HeLa cells were
incubated at a density of 1 × 10^5 cells/35 mm dish with a
number of dilutions of the test compound in the medium. The plates were
incubated at 37° C. in a CO2 incubation. At the end of 72
hours the cells were collected by trypinization and counted and the […]

[9] = 25 mg/kg i.p. once daily, day 1-11
[10] = 25 mg/kg i.p. once daily, day 7-11
[11] = 50 mg/kg i.p. once daily, day 1-11
[12] = 50 mg/kg i.p. once daily, day 7-11
[13] = 25 mg/kg i.p. once daily day 1-9
[14] = 50 mg/kg i.p. once daily day 1-9
[15] = 12.5 mg/kg i.p. once daily day 1-15
[16] = 25 mg/kg i.p. once daily day 1-15
[17] = 50 mg/kg i.p. once daily day 1-15
[18] = 6.25 mg/kg i.p. once daily day 1-9
[19] = 12.5 mg/kg i.p. once daily day 1-9
[20] = 25.0 mg/kg i.p. once daily day 1-9
[21] = 50.0 mg/kg i.p. once daily day 1-9
[22] = 0.2 mg/kg i.p. once daily day 1-15
[23] = 0.20 mg/kg i.p. once daily day 1-9

## COc1ccc(OC)c(C(=O)C(C)=Cc2ccc(N(C)C)cc2)c1 [1-(2,5-dimethoxyphenyl)-3-[4-(dimethylamino)phenyl]-2-methyl-2-propen-1-one]
[1]; [9]
  PERCENT INHIBITION (tumor weight): 29%
  TUMOR WEIGHT (Means ± S.E., n = 6): 2.86 ± 0.38 g
[1]; [10]
  PERCENT INHIBITION (tumor weight): 21%
  TUMOR WEIGHT (Means ± S.E., n = 6): 3.19 ± 0.61 g
[1]; [11]
  PERCENT INHIBITION (tumor weight): 65%
  TUMOR WEIGHT (Means ± S.E., n = 6): 1.41 ± 0.32 g
[1]; [12]
  PERCENT INHIBITION (tumor weight): 31%
  TUMOR WEIGHT (Means ± S.E., n = 6): 2.70 ± 0.36 g
[2]; [13]
  PERCENT T/C (survival): 142%
  SURVIVAL TIME (Mean ± S.E., n = 10): 16.0 ± 1.5 days
[2]; [14]
  PERCENT T/C (survival): 141%
  SURVIVAL TIME (Mean ± S.E., n = 10): 15.8 ± 0.5 days
[3]; [15]
  PERCENT INHIBITION (tumor growth): 30%
  TUMOR GROWTH (Mean ± S.E., n = 10): 4.66 ± 0.56 g
[3]; [16]
  PERCENT INHIBITION (tumor growth): 32%
  TUMOR GROWTH (Mean ± S.E., n = 10): 4.5 ± 0.70 g
[3]; [17]
  PERCENT INHIBITION (tumor growth): 45%
  TUMOR GROWTH (Mean ± S.E., n = 10): 3.66 ± 0.83 g
[4]; [15]
  PERCENT T/C (survival): 146%
  SURVIVAL (MEAN ± S.E., n = 10): 20.4 ± 1.5 days
[4]; [16]
  PERCENT T/C (survival): 183%
  SURVIVAL (MEAN ± S.E., n = 10): 25.6 ± 4.8 days
[5]; 1 hour, then washed and grown 18 hours in drug free medium
  minimal effective concentration: 0.06 µg/mL
[5]; 6 hours
  minimal effective concentration: 0.0038 µg/mL
[6]; [18]
  PERCENT T/C (survival): 126%
  SURVIVAL TIME (Mean ± S.E., n = 20): 8.8 ± 0.2 days
[6]; [19]
  PERCENT T/C (survival): 137%
  SURVIVAL TIME (Mean ± S.E., n = 20): 9.6 ± 0.3 days
[6]; [20]
  PERCENT T/C (survival): 146%
  SURVIVAL TIME (Mean ± S.E., n = 20): 10.2 ± 0.2 days
[6]; [21]
  PERCENT T/C (survival): 154%
  SURVIVAL TIME (Mean ± S.E., n = 20): 10.8 ± 0.4 days

## C[C@]12CCC(=O)C=C1CC[C@@H]1[C@@H]2[C@@H](O)C[C@@]2(C)[C@H]1CC[C@]2(O)C(=O)CO [HYDROCORTISONE, hydrocortisone]
[7]
  PERCENT INCIDENCE OF PARALYSIS: 74%
[7]; significant at p < 0.01
  PARALYSIS TIME (Mean ± S.E.): 11.0 ± 0.28 days

## CC[C@]1(O)C[C@@H]2CN(CCc3c([nH]c4ccccc34)[C@@](C(=O)OC)(c3cc4c(cc3OC)N(C)[C@H]3[C@@](O)(C(=O)OC)[C@H](OC(C)=O)[C@]5(CC)C=CCN6CC[C@]43[C@@H]65)C2)C1 [VINBLASTINE, vinblastine, reference compound]
[8]
  IC50: 0.015 µg/mL (≈ 0.0185 µM)
[4]; [22]
  PERCENT T/C (survival): 180%
  SURVIVAL (MEAN ± S.E., n = 10): 25.2 ± 2.3 days
[5]; 6 h
  minimal effective concentration: 0.0015 µg/mL
[6]; [23]
  PERCENT T/C (survival): 140%
  SURVIVAL TIME (Mean ± S.E., n = 20): 9.8 ± 0.4 days

## CC[C@]1(O)C[C@H]2CN(CCc3c([nH]c4ccccc34)[C@@](C(=O)OC)(c3cc4c(cc3OC)N(C=O)[C@H]3[C@@](O)(C(=O)OC)[C@H](OC(C)=O)[C@]5(CC)C=CCN6CC[C@]43[C@@H]65)C2)C1 [VINCRISTINE, vincristine, reference compound]
[6]; [23]
  PERCENT T/C (survival): 146%
  SURVIVAL TIME (Mean ± S.E., n = 20): 10.2 ± 0.4 days
